In patent US20080255031A1, “METHOD FOR ENHANCING INSULIN SECRETION” (priority 2007, published 2008):
In brackets after ≈: the same amount, converted by molar mass. Where two headings read alike, the source gives them in different places. Each block holds one compound with its values, some of them ahead of it.

How the values were obtained:
[1] = target: T1, IKr (Canis lupus familiaris, UniProt Q9TSZ3); assay: cell-based
T1 sequence (Q9TSZ3 1-1158): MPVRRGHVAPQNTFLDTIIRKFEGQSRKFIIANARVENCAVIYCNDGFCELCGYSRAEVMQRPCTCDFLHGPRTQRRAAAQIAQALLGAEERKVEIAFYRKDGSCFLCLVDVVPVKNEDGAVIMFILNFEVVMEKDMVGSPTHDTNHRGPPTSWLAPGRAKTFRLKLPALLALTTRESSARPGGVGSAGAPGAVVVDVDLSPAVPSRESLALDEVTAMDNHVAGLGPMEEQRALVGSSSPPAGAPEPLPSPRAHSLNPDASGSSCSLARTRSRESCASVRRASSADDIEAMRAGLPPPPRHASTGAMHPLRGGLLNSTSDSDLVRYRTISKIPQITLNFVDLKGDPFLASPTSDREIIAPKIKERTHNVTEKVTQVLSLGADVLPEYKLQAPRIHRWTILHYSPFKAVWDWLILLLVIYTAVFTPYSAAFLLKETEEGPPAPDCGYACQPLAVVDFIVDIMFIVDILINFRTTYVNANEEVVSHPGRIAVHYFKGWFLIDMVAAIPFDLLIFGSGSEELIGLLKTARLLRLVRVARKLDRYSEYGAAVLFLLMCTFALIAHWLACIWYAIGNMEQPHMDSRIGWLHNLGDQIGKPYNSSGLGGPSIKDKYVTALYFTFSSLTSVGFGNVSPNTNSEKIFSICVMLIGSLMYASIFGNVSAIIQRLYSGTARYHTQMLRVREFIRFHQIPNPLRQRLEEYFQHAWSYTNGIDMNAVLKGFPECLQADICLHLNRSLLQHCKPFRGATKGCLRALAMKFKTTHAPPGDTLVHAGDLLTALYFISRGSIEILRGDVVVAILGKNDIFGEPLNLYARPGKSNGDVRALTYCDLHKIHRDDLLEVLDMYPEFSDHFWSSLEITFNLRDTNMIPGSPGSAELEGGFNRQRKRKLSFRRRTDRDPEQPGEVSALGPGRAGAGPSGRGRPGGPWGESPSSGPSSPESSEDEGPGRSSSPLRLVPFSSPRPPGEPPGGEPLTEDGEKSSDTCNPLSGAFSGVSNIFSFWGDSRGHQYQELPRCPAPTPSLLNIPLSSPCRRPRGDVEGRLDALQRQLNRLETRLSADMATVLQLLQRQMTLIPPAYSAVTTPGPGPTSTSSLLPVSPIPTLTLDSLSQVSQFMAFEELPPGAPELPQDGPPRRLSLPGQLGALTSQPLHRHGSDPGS
Description: (§1) Whole cell currents were recorded from isolated canine left ventricular midmyocrdial cells at 37° C. IKr and IKs were recorded during standard pulse protocols. Action potentials recorded at basic cycle lengths (BCL) of 300 and 2000 ms were used as command waveforms during voltage claim to measure late INa. Enantiomeric effects were determined at concentrations of 3, 10, and 30 μM.
(§2) Late INa was evaluated at two voltages during the plateau and final repolarization of an action potential voltage claims.

[2] = target: T2, CYP2D6 (Homo sapiens, UniProt P10635); assay: biochemical
[3] = tested on: IKs; assay: Whole cell IKs in isolated canine left ventricular midmyocardial cells; type: cell-based; conditions: 30 μM
Description: as §1, §2

[4] = tested on: human isolated pancreatic islets; assay: GSIS in human isolated pancreatic islets; type: cell-based; conditions: one donor, 30 min incubation (Example 4, FIG. 4)
Description: Rat islets were isolated from male Sprague-Dawley (SD) rats (8-12 weeks old, n=6) as described by Yang Z. et al. […] Insulin secretion assay was performed essentially as previously described by Liu D. et al. Steroids 2006, 71, 691-699. […] Insulin secreted in experimental samples was measured by a RIA kit (Mercodia, N.C.). […] The procedure used for the human islets was the same as the procedure used in Example 1 above, except that the incubation period was 30 minutes, instead of the 60 minutes used in Example 1.

[5] = tested on: IKs; conditions: Zygmunt et al. (2002); read-out: IC50 value (current not named); cited from earlier work
[6] = target: T1, IKr; set-up: Whole cell currents were recorded from isolated canine left ventricular midmyocrdial cells; endogenous in cells; host or cells: isolated canine left ventricular midmyocardial cells; conditions: Zygmunt et al. (2002); cited from earlier work
[7] = target: T2, CYP2D6; assay: Inhibitory effects on CYP2D6 in extensive metabolizers of dextromethorphan; type: in vivo; set-up: evaluated in extensive metabolizers of dextromethorphan; from tissue; host or cells: in vivo, subjects who are extensive metabolizers
[8] = patients; U.S. Patent Publication No. 2004/0063717; cited from earlier work
[9] = Solubility in aqueous solutions by pH (Table 1); type: physicochemical
[10] = target: T2, CYP2D6; assay: biochemical; remark: listed apart in the source
[11] = tested on: rat isolated pancreatic islets; assay: Glucose stimulated insulin secretion (GSIS) in rat isolated pancreatic islets; type: cell-based
Description: Rat islets were isolated from male Sprague-Dawley (SD) rats (8-12 weeks old, n=6) as described by Yang Z. et al. […] Insulin secretion assay was performed essentially as previously described by Liu D. et al. Steroids 2006, 71, 691-699. […] Insulin secreted in experimental samples was measured by a RIA kit (Mercodia, N.C.). All insulin secretion data in the present study were normalized to insulin secretion per islet. There was a biphasic response for insulin secretion to ranolazine.

T2 sequence (P10635 whole entry): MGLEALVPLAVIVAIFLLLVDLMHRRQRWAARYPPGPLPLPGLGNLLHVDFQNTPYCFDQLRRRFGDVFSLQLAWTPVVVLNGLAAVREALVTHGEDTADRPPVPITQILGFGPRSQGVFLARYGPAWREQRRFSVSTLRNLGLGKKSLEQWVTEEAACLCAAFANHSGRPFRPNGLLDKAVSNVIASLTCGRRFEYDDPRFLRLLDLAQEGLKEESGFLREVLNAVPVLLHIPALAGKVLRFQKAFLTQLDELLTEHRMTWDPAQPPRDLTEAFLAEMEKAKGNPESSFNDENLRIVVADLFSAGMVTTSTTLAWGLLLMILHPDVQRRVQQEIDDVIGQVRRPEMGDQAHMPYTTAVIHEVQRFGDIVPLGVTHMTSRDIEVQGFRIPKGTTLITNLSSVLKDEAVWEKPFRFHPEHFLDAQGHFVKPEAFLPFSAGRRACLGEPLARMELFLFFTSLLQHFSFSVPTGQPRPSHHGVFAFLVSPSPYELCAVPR

IC50 [2]: 430 µM
SMILES: COc1ccccc1OC[C@H](O)CN1CCN(CC(=O)Nc2c(C)cccc2C)CC1 [R-ranolazine, (R)-(+)-N-(2,6-dimethylphenyl)-4-[2-hydroxy-3-(2-methoxyphenoxy)-propyl]-1-piperazineacetamide]
IC50 [1]: 28 ± 4 µM
IKs reduced [3]: 5%
increasing the secretion of insulin in response to glucose [4]: significantly more effective

inhibition of CYP2D6 by ranolazine and/or metabolites [7]: partially inhibit CYP2D6
USP Solubility Class ([9]; Solution pH 4.81): Freely Soluble
USP Solubility Class ([9]; Solution pH 4.89): Soluble
USP Solubility Class ([9]; Solution pH 4.90): Soluble
USP Solubility Class ([9]; Solution pH 5.04): Soluble
USP Solubility Class ([9]; Solution pH 5.35): Sparingly Soluble
USP Solubility Class ([9]; Solution pH 5.82): Slightly soluble
USP Solubility Class ([9]; Solution pH 6.46): Slightly soluble
USP Solubility Class ([9]; Solution pH 6.73): Very slightly soluble
USP Solubility Class ([9]; Solution pH 7.08): Very slightly soluble
USP Solubility Class ([9]; Solution pH 7.59 (unbuffered water)): Very slightly soluble
Solubility ([9]; Solution pH 7.79): 170 µg/mL (≈ 398 µM)
USP Solubility Class ([9]; Solution pH 7.79): Very slightly soluble
USP Solubility Class ([9]; Solution pH 12.66): Very slightly soluble
IC50 [10]: 324 µM
SMILES: COc1ccccc1OCC(O)CN1CCN(CC(=O)Nc2c(C)cccc2C)CC1 (racemic) [ranolazine, (±)-N-(2,6-dimethylphenyl)-4-[2-hydroxy-3-(2-methoxyphenoxy)propyl]-1-piperazine-acetamide]
IC50 [5]: > 100 µM
IC50 [6]: 11 µM
HbA1c levels [8]: reduced HbA1c levels
increase of insulin secretion (GSIS) ([11]; 1 nM to 1 μM, concentration-dependent, 20 mM glucose, 60 min): 2-5 fold
effect on GSIS ([11]; 10 μM, compared with 20 mM glucose alone): no significant effect on GSIS

IC50 [2]: 130 µM
SMILES: COc1ccccc1OC[C@@H](O)CN1CCN(CC(=O)Nc2c(C)cccc2C)CC1 [S-ranolazine, (S)-(−)-N-(2,6-dimethylphenyl)-4-[2-hydroxy-3-(2-methoxyphenoxy)-propyl]-1-piperazineacetamide]
IC50 [1]: 10 ± 2 µM
IKs reduced [3]: 27%
